Results reported in patent US12358921B2, “Antiviral heterocyclic compounds” (priority 2022, dated 2025).

Assays:
[1] = test system: HUMAN RSV-A (“LONG” STRAIN); test: RSV-A assay (CPE, ATPlite) in Hep-2 cells; format: cell-based; settings: human respiratory syncytial virus, 120 h, MOI 0.1, 5-day incubation
Outline: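 Protection from RSV cytopathic effect read by ATP luminescence (ATPlite) after 5-day culture. Genotype A "Long" virus added at MOI 0.1 to Hep-2 monolayers at 8,000 cells/well, pre-dosed with duplicate 2-fold compound dilutions; controls include infected untreated and uninfected wells. EC50 values binned into ranges.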

hMPV A2 TN/94-49 = test: HMPV antiviral assay Method 1 (LLC-MK2 cells, ATP-Lite); format: cell-based; settings: hMPV A2 TN/94-49, LLC-MK2 cells
Protocol: In vitro HMPV antiviral activity was evaluated using the clinical isolate A2 strain TN 94-49 (obtained from Dr. John Williams, Vanderbilt University, Tennessee) and […] cells (ATCC #CCL-7), an immortalized kidney epithelial cell line from Macaca mulatta. Compounds were resuspended in dimethyl sulfoxide (DMSO) at 10 mM, serially diluted and added to a 384-well source plate. Subsequently, the compounds were diluted and transferred onto 384-well assay plates using the Echo-650 automated liquid handling system (Beckman Coulter, Indiana). The test compounds were assessed in duplicate at a top concentration of 2 μM followed by 2.5-fold serial dilutions to give a total of 10 concentration points. DMSO control wells were also included on the assay plates and were either infected or not, acting as positive and negative controls. A2 TN 94-49 virus infections were performed in-suspension with LLC-MK2 cells. The cells were washed twice with PBS and removed from the cell-culture flask with 0.25% trypsin-EDTA (Thermo Fisher Scientific, MA). The trypsin-EDTA was inactivated by resuspending in 2% fetal bovine serum (FBS) and OptiMEM (ThermoFisher Scientific, MA) containing 1% penicillin-streptomycin. Cells were pelleted by centrifuging for 5 minutes at 800 rpm, the supernatant was removed, and cells were re-suspended and washed in PBS plus 100 μg/mL CaCl2). This step was performed twice. Cells were then re-suspended in serum-free (SF)-OptiMEM containing 4 μg/mL TPCK-Trypsin (Sigma Aldrich, MO), 1% penicillin-streptomycin (ThermoFisher Scientific, MA) and 100 μg/mL CaCl2). Cells were counted and seeded at a density of 5,000 cells/well, 12.5 μL/well. Virus infections were done at a multiplicity of infection (MOI) of 0.005 with 12.5 μL added per well. Virus infections were performed in infection media which contained SF-OptiMEM, 100 μg/mL CaCl2) and 1% penicillin-streptomycin. HMPV viral stocks are suspended in infection media+5% glycerol, thus an equal volume of infection media+5% glycerol was added to uninfected wells to equalize the final % glycerol across all wells of the assay plate. The final concentration of TPCK-trypsin was 2 μg/mL. The assay plates were incubated at 37° C., 5% CO2 for 7 days. After 7 days incubation, 12.5 μL of ATP-Lite (PerkinElmer, MA) was added to each well and the raw luminescence values were determined using the Envision 2104 (Perkin Elmer, MA). The average of the raw luminescence values for the cells and virus only positive control wells was subtracted from all conditions tested and the percent cell health was determined by dividing these values by the average of the cells only negative control wells. EC50 values were then calculated by non-linear regression using a four-parameter curve logistic equation. The curve fit model employed was XLFit Dose Response One Site Model 200: y=(A+(B/(1+((x/C)^D)))), where A is the minimum y value, B is the maximum y value, C is the log EC50value, and D is the slope factor. Method 2: In Vitro HMPV Antiviral Activity was Evaluated Using the Clinical Isolate A2 Strain TN 94-49

SMILES | EC50 [1] | EC50 (hMPV A2 TN/94-49)
COc1cc(C(=O)NC[C@](O)(c2cc3c(c(-c4ccc5c(c4Cl)OC(F)(F)O5)n2)OC[C@]3(C)C(N)=O)C(F)(F)F)cc2cn(C3CC3)nc12 [Example 52] | < 200 nM | > 500 nM
COc1cc(C(=O)NC[C@](O)(c2cc3c(c(-c4cccc(S(F)(F)(F)(F)F)c4)n2)OC[C@]3(C)C(N)=O)C(F)(F)F)cc2cn(C3CC3)nc12 [Example 54] | < 200 nM | > 500 nM
COc1cc(C(=O)NC[C@](O)(c2cc3c(c(-c4ccc(C(F)(F)F)c(C)c4)n2)OC[C@]3(C)C(N)=O)C2CC2)cc2cn(C3CC3)nc12 [Example 55] | < 200 nM | > 500 nM
COc1cc(C(=O)NC[C@](O)(c2cc3c(c(-c4ccc(C)c(C(F)(F)F)c4)n2)OC[C@]3(C)C(N)=O)C2CC2)cc2cn(C3CC3)nc12 [Example 56] | < 200 nM | > 500 nM
COc1cc(C(=O)NC[C@](O)(c2cc3c(c(-c4ccc(Cl)c(Cl)c4Cl)n2)OC[C@]3(C)C(N)=O)C2CC2)cc2cn(C3CC3)nc12 [Example 60] | < 200 nM | < 500 nM
COc1cc(C(=O)NC[C@](O)(c2cc3c(c(-c4cc(Cl)cc(Cl)c4Cl)n2)OC[C@]3(C)C(N)=O)C2CC2)cc2cn(C3CC3)nc12 [Example 61] | < 200 nM | < 500 nM
COc1cc(C(=O)NC[C@](O)(c2cc3c(c(-c4ccc(F)cc4O)n2)OC[C@]3(C)C(N)=O)C2CC2)cc2cn(C3CC3)nc12 [Example 63] | < 200 nM | > 500 nM
COc1cc(C(=O)NC[C@@](O)(c2cc3c(c(-c4ccc(F)cc4O)n2)OC[C@]3(C)C(N)=O)C2CC2)cc2cn(C3CC3)nc12 [Example 64] | < 200 nM | > 500 nM
COc1cc(F)ccc1-c1nc([C@@](O)(CNC(=O)c2cc(OC)c3nn(C4CC4)cc3c2)C2CC2)cc2c1OC[C@]2(C)C(N)=O [Example 67] | < 200 nM | > 500 nM
COc1cc(C(=O)NC[C@](O)(c2cc3c(c(-c4ccc(F)c(CO)c4F)n2)OC[C@]3(C)C(N)=O)C2CC2)cc2cn(C3CC3)nc12 [Example 72] | < 200 nM | > 500 nM

Results, then the compound that gave them:

EC50 [1] | EC50 (hMPV A2 TN/94-49) | SMILES
< 200 nM | < 500 nM | COc1cc(C(=O)NC[C@](O)(c2cc3c(c(-c4cc(C(F)(F)F)ccc4C)n2)OC[C@]3(C)C(N)=O)C2CC2)cc2cn(C3CC3)nc12 [Example 53]
< 200 nM | > 500 nM | COc1cc(C(=O)NC[C@@](O)(c2cc3c(c(-c4cc(F)c(F)c(F)c4Cl)n2)OC[C@]3(C)C(N)=O)C(F)(F)F)cc2cn(C3CC3)nc12 [Example 58]
< 200 nM | < 500 nM | COc1cc(C(=O)NC[C@](O)(c2cc3c(c(-c4cc(F)c(F)c(F)c4Cl)n2)OC[C@]3(C)C(N)=O)C(F)(F)F)cc2cn(C3CC3)nc12 [Example 59]
< 200 nM | > 500 nM | COc1cc(C(=O)NC[C@](O)(c2cc3c(c(-c4cc(Cl)c(Cl)cc4Cl)n2)OC[C@]3(C)C(N)=O)C2CC2)cc2cn(C3CC3)nc12 [Example 62]
< 200 nM | < 500 nM | COc1cc(C(=O)NC[C@@](O)(c2ccccc2)c2cc3c(c(-c4cc(Cl)c(F)cc4F)n2)OC[C@]3(C)C(N)=O)cc2cc(C)cnc12 [Example 80]
< 200 nM | < 500 nM | Cc1nc2ccc(C(=O)NC[C@@](O)(c3ccccc3)c3cc4c(c(-c5cc(Cl)c(F)cc5F)n3)OC[C@]4(C)C(N)=O)cc2o1 [Example 86]
< 200 nM | < 500 nM | [2H]C([2H])([2H])c1nc2ccc(C(=O)NC[C@@](O)(c3ccccc3)c3cc4c(c(-c5cc(Cl)c(F)cc5F)n3)OC[C@]4(C)C(N)=O)cc2o1 [Example 87]
< 200 nM | < 500 nM | COc1cc(C(=O)NC[C@@](O)(c2cccc(F)c2)c2cc3c(c(-c4cc(Cl)c(F)cc4F)n2)OC[C@]3(C)C(N)=O)cc2cn(C(F)F)nc12 [Example 134]
< 200 nM | > 500 nM | Cc1nc2c(OC(F)F)cc(C(=O)NC[C@@](O)(c3cccc(F)c3)c3cc4c(c(-c5cc(Cl)c(F)cc5F)n3)OC[C@]4(C)C(N)=O)cc2cc1Br [Example 135]
